Assay: xn = mol fraction of the nth substance listed
Settings: Liquid; for speed of sound: Pulse-echo method

CCCCCCCCCCCC [dodecane] + CCCCCCC
Settings	mass density [kg/m3]	speed of sound [m/s]
292.85 K, 15200 kPa, x2 = 0.4999	–	1334.1
292.85 K, 15200 kPa, x2 = 0.97	–	1263.4
292.85 K, 30390 kPa, x2 = 0.4999	–	1411.6
292.85 K, 30390 kPa, x2 = 0.97	–	1348.3
292.85 K, 45590 kPa, x2 = 0.4999	–	1480.8
292.85 K, 60790 kPa, x2 = 0.4999	–	1543.7
292.85 K, 60790 kPa, x2 = 0.97	–	1490.4
292.85 K, 75990 kPa, x2 = 0.4999	–	1602.4
292.85 K, 75990 kPa, x2 = 0.97	–	1552
292.85 K, 91180 kPa, x2 = 0.4999	–	1656.6
292.85 K, 91180 kPa, x2 = 0.97	–	1609.5
292.85 K, 101320 kPa, x2 = 0.4999	–	1690.5
292.86 K, 15200 kPa, x2 = 0.5003	–	1333.8
292.86 K, 15200 kPa, x2 = 0.9391	–	1268.7
292.86 K, 30390 kPa, x2 = 0.1014	–	1449.6
292.86 K, 30390 kPa, x2 = 0.5003	–	1411.4
292.86 K, 30410 kPa, x2 = 0.9391	–	1352.9
292.86 K, 45590 kPa, x2 = 0.1014	–	1516.2
292.86 K, 45590 kPa, x2 = 0.5003	–	1480.8
292.86 K, 45590 kPa, x2 = 0.9391	–	1427.3
292.86 K, 45590 kPa, x2 = 0.97	–	1423.1
292.86 K, 60790 kPa, x2 = 0.1014	–	1577
292.86 K, 60790 kPa, x2 = 0.5003	–	1543.8
292.86 K, 60790 kPa, x2 = 0.9391	–	1494.1
292.86 K, 75990 kPa, x2 = 0.1014	–	1633.6
292.86 K, 75990 kPa, x2 = 0.5003	–	1602.5
292.86 K, 75990 kPa, x2 = 0.9391	–	1555.3
292.86 K, 91180 kPa, x2 = 0.1014	–	1686.1
292.86 K, 91180 kPa, x2 = 0.5003	–	1656.8
292.86 K, 91180 kPa, x2 = 0.9391	–	1612.7
292.86 K, 101320 kPa, x2 = 0.1014	–	1719.2
292.86 K, 101320 kPa, x2 = 0.9391	–	1647.3
292.86 K, 101320 kPa, x2 = 0.97	–	1645.4
292.87 K, 15200 kPa, x2 = 0	–	1384.9
292.87 K, 15200 kPa, x2 = 0.1014	–	1375.7
292.87 K, 15200 kPa, x2 = 0.3007	–	1355.3
292.87 K, 15200 kPa, x2 = 0.7007	–	1306.2
292.87 K, 30390 kPa, x2 = 0	–	1457.9
292.87 K, 30390 kPa, x2 = 0.3007	–	1430.9
292.87 K, 30390 kPa, x2 = 0.7007	–	1386.2
292.87 K, 45590 kPa, x2 = 0	–	1524.1
292.87 K, 45590 kPa, x2 = 0.3007	–	1498.8
292.87 K, 45590 kPa, x2 = 0.7007	–	1457.9
292.87 K, 60790 kPa, x2 = 0	–	1584.5
292.87 K, 60790 kPa, x2 = 0.3007	–	1560.6
292.87 K, 60790 kPa, x2 = 0.7007	–	1522.8
292.87 K, 75990 kPa, x2 = 0	–	1640.7
292.87 K, 75990 kPa, x2 = 0.3007	–	1618.5
292.87 K, 75990 kPa, x2 = 0.7007	–	1582.4
292.87 K, 91180 kPa, x2 = 0	–	1692.8
292.87 K, 91180 kPa, x2 = 0.3007	–	1671.5
292.87 K, 91180 kPa, x2 = 0.7007	–	1638
292.87 K, 101320 kPa, x2 = 0	–	1725.8
292.87 K, 101320 kPa, x2 = 0.3007	–	1705.1
292.87 K, 101320 kPa, x2 = 0.5003	–	1691
292.87 K, 101320 kPa, x2 = 0.7007	–	1672.6
292.87 K, 101320 kPa, x2 = 0.8496	–	1658.6
292.88 K, 15200 kPa, x2 = 0.8496	–	1284
292.88 K, 75990 kPa, x2 = 0.8496	–	1566.3
292.89 K, 101 kPa, x2 = 0	–	1299.5
292.89 K, 101 kPa, x2 = 0.3002	–	1267.5
292.89 K, 101 kPa, x2 = 0.3996	–	1255
292.89 K, 101 kPa, x2 = 0.6	–	1226.8
292.89 K, 101 kPa, x2 = 0.7002	–	1210.7
292.89 K, 101 kPa, x2 = 0.8995	–	1174.4
292.89 K, 30390 kPa, x2 = 0.8496	–	1366.5
292.89 K, 45590 kPa, x2 = 0.8496	–	1439.7
292.89 K, 60790 kPa, x2 = 0.8496	–	1505.9
292.89 K, 91180 kPa, x2 = 0.8496	–	1623.3
292.9 K, 101 kPa, x2 = 0.8	–	1193.4
292.91 K, 101 kPa, x2 = 0.1007	–	1289.6
292.91 K, 101 kPa, x2 = 0.2001	–	1279
292.91 K, 101 kPa, x2 = 0.5002	–	1241.3
293.15 K, 101 kPa, x2 = 0	748.921	–
293.15 K, 101 kPa, x2 = 0.0991	744.788	–
293.15 K, 101 kPa, x2 = 0.2008	740.186	–
293.15 K, 101 kPa, x2 = 0.2998	735.319	–
293.15 K, 101 kPa, x2 = 0.3996	729.97	–
293.15 K, 101 kPa, x2 = 0.5	724.072	–
293.15 K, 101 kPa, x2 = 0.6	717.632	–
293.15 K, 101 kPa, x2 = 0.7005	710.489	–
293.15 K, 101 kPa, x2 = 0.7995	702.66	–
293.15 K, 101 kPa, x2 = 0.8486	698.428	–
293.15 K, 101 kPa, x2 = 0.8988	693.851	–
293.15 K, 101 kPa, x2 = 0.9498	688.947	–
298.14 K, 30390 kPa, x2 = 0.97	–	1329.4
298.14 K, 30410 kPa, x2 = 0.9391	–	1333.2
298.14 K, 45590 kPa, x2 = 0.9391	–	1408.7
298.14 K, 45590 kPa, x2 = 0.97	–	1405.4
298.14 K, 60790 kPa, x2 = 0.9391	–	1476.6
298.14 K, 60790 kPa, x2 = 0.97	–	1473.9
298.14 K, 75990 kPa, x2 = 0.97	–	1536.2
298.14 K, 91180 kPa, x2 = 0.9391	–	1596.4
298.14 K, 91180 kPa, x2 = 0.97	–	1594.1
298.14 K, 101320 kPa, x2 = 0.9391	–	1632.6
298.14 K, 101320 kPa, x2 = 0.97	–	1630.6
298.15 K, 101 kPa, x2 = 0	745.269	–
298.15 K, 101 kPa, x2 = 0.0991	741.128	–
298.15 K, 101 kPa, x2 = 0.2008	736.497	–
298.15 K, 101 kPa, x2 = 0.2998	731.58	–
298.15 K, 101 kPa, x2 = 0.5	720.233	–
298.15 K, 101 kPa, x2 = 0.7005	706.501	–
298.15 K, 101 kPa, x2 = 0.7995	698.598	–
298.15 K, 101 kPa, x2 = 0.8486	694.34	–
298.15 K, 101 kPa, x2 = 0.8988	689.718	–
298.15 K, 101 kPa, x2 = 0.9498	684.775	–
298.15 K, 15200 kPa, x2 = 0.5003	–	1314.6
298.15 K, 15200 kPa, x2 = 0.9391	–	1247.1
298.15 K, 15200 kPa, x2 = 0.97	–	1242.9
298.15 K, 30390 kPa, x2 = 0.4999	–	1393.4
298.15 K, 30390 kPa, x2 = 0.5003	–	1393.3
298.15 K, 45590 kPa, x2 = 0.1014	–	1499.1
298.15 K, 45590 kPa, x2 = 0.4999	–	1464
298.15 K, 45590 kPa, x2 = 0.5003	–	1464.1
298.15 K, 45590 kPa, x2 = 0.7007	–	1440.8
298.15 K, 60790 kPa, x2 = 0.1014	–	1560.5
298.15 K, 60790 kPa, x2 = 0.3007	–	1544.4
298.15 K, 60790 kPa, x2 = 0.4999	–	1527.7
298.15 K, 60790 kPa, x2 = 0.5003	–	1528
298.15 K, 60790 kPa, x2 = 0.7007	–	1506.5
298.15 K, 75990 kPa, x2 = 0.1014	–	1618.2
298.15 K, 75990 kPa, x2 = 0.4999	–	1586.8
298.15 K, 75990 kPa, x2 = 0.5003	–	1587
298.15 K, 75990 kPa, x2 = 0.7007	–	1566.5
298.15 K, 75990 kPa, x2 = 0.9391	–	1538.7
298.15 K, 91180 kPa, x2 = 0.1014	–	1671
298.15 K, 91180 kPa, x2 = 0.4999	–	1641.7

Reference: the NIST ThermoML archive (doi:10.1016/j.jct.2008.05.014)
